For 15 compounds, IC50 results are on record in patent US20190343828A1, “CAMPTOTHECIN PEPTIDE CONJUGATES” (SEATTLE GENETICS, INC., priority 2018, published 2019).

Assay [1] relates to Hodgkin's lymphoma cells (L540cy). As to the kind of experiment: In vitro cytotoxicity, CellTiter-Glo 96 h, L540cy. Particulars: read-out: Cytotoxic potency (IC50 class), L540cy. In general terms: Cellular ATP, detected with luciferase, serves as a proxy for viable cell number.
The subject of assay [2] is multiple myeloma cells (MM.1R). As to the kind of experiment: In vitro cytotoxicity, CellTiter-Glo 96 h, MM.1R. Particulars: read-out: Cytotoxic potency (IC50 class), MM.1R.
Assay [3] deals with B-lymphocyte cancer cells (SU-DHL-4). As to the kind of experiment: In vitro cytotoxicity, CellTiter-Glo 96 h, SU-DHL-4. Particulars: Homo sapiens, SU-DHL-4, read-out: Cytotoxic potency as free drug, IC50, SU-DHL-4.
Experimental: (§1) In vitro potency was assessed on multiple cancer cell lines. All cell lines were authenticated by STR profiling at IDEXX Bioresearch and cultured for no more than 2 months after resuscitation. Cells cultured in log-phase growth were seeded for 24 hours in 96-well plates containing 150 μl RPMI 1640 supplemented with 20% FBS. Serial dilutions of antibody-drug conjugates in cell culture media were prepared at 4× working concentrations, and 50 μl of each dilution was added to the 96-well plates. Following addition of test articles, cells were incubated with test articles for 4 days at 37° C. After 96 hours, growth inhibition was assessed by CellTiter-Glo® (Promega, Madison, Wis.) and luminescence was measured on a plate reader.
(§2) Cell viability was determined by CellTiter-Glo staining after 96 h exposure to ADC. […] Ag1 is an antibody targeting a ubiquitous and readily internalizable antigen on cancer cells, Ag2 is cAC10 antibody targeting CD30(+) cancer cells, Ag3 is h1F6 antibody targeting CD70(+) cancer cells, Ag4 is hMEM102 antibody targeting CD48(+) cancer cells, Ag5 is h20F3 antibody targeting NTB-A expressing cancer cells, and h00 is a non-binding control antibody.
Assay [4] concerns B-lymphocyte cancer cells (U266). As to the kind of experiment: In vitro cytotoxicity, CellTiter-Glo 96 h, U266. Particulars: Homo sapiens, U-266, read-out: Cytotoxic potency as free drug, IC50, U266.
Experimental: as §1, §2
In assay [5] the test system is acute promyelocytic leukemia cells (HL-60). Description: In vitro cytotoxicity, CellTiter-Glo 96 h, HL-60. Particulars: Homo sapiens, HL-60, read-out: Cytotoxic potency (IC50 class), HL-60.
Experimental: as §1, §2
Assay [6] has as its system Burkitt's lymphoma cells (Ramos). Description: In vitro cytotoxicity, CellTiter-Glo 96 h, Ramos. Particulars: Homo sapiens, read-out: Cytotoxic potency as free drug, IC50, Ramos.
Experimental: as §1
(§3) Cell viability was determined by CellTiter-Glo staining after 96 h exposure to ADC.
In assay [7] the test system is renal carcinoma cells (786-O). As to the kind of experiment: In vitro cytotoxicity, CellTiter-Glo 96 h, 786-O. Particulars: Homo sapiens, 786-0, read-out: Cytotoxic potency (IC50 class), 786-O.
Experimental: as §1, §3
Assay [8] relates to pancreatic cancer cells (BxPC3). As to the kind of experiment: In vitro cytotoxicity, CellTiter-Glo 96 h, BxPC3. Particulars: Homo sapiens, BXPC-3, read-out: Cytotoxic potency (IC50 class), BxPC3.
Experimental: as §1, §3
Assay [9] concerns melanoma cells (SK-MEL-5). As to the kind of experiment: In vitro cytotoxicity, CellTiter-Glo 96 h, SK-MEL-5. Particulars: Homo sapiens, SK-MEL-5, read-out: Cytotoxic potency as free drug, IC50, SK-MEL-5.
Assay [10] concerns acute myeloid leukemia cells (MOLM13). Description: In vitro cytotoxicity, CellTiter-Glo 96 h, MOLM13. Particulars: Homo sapiens, MOLM-13, read-out: Cytotoxic potency as free drug, IC50, MOLM13.
Assay [11] concerns multiple drug resistant acute promyelocytic leukemia cells (HL-60/RV). As to the kind of experiment: In vitro cytotoxicity, CellTiter-Glo 96 h, HL60/RV. Particulars: Homo sapiens, HL-60, read-out: Cytotoxic potency (IC50 class), HL60/RV.

SMILES strings stand for the structures. pIC50: −log10 of the molar value.

Consider `CCNCc1c2c(nc3cc4c(cc13)OCO4)-c1cc3c(c(=O)n1C2)COC(=O)[C@]3(O)CC` [Compound 5a], for which the pIC50 in [1] was 8.00 to 9.00; in assay [2], 8.00 to 9.00; in assay [3], 8.00 to 9.00; in assay [4] it was 8.00 to 9.00; in assay [5] it was 7.00 to 8.00; in assay [6] it was 8.00 to 9.00. Further, the pIC50 in [7], in assay [8], in [9], in assay [10] and in assay [11] was 8.00 to 9.00 throughout.

`CC[C@@]1(O)C(=O)OCc2c1cc1n(c2=O)Cc2c-1nc1cc3c(cc1c2CN)OCO3` [Compound 4, 7-methylamino Derivative-methylenedioxy camptothecin]: the pIC50 is 8.00 to 9.00 in [1]; 8.00 to 9.00 in [2]; 9.00 to 10.00 in assay [3]; 8.00 to 9.00 in assay [4]; 7.00 to 8.00 in assay [5]; 8.00 to 9.00 in [6]. In addition, the pIC50 in assay [7] is 8.00 to 9.00; in assay [8], 8.00 to 9.00; in assay [9] it was 8.00 to 9.00; in [10], 8.00 to 9.00; in [11], 7.00 to 8.00.

Consider `CC[C@@]1(O)C(=O)OCc2c1cc1n(c2=O)Cc2c-1nc1cc3c(cc1c2CNCc1ccc(N)cc1)OCO3` [Compound 5e], for which the pIC50 is 8.00 to 9.00 in assay [1]; 8.00 to 9.00 in [2]; 8.00 to 9.00 in assay [3]; 7.00 to 8.00 in assay [4]; 7.00 to 8.00 in assay [5]; 8.00 to 9.00 in [6]. In addition, the pIC50 was 7.00 to 8.00 in assay [7]; 7.00 to 8.00 in [8]; 7.00 to 8.00 in [9]; 8.00 to 9.00 in assay [10]; 6.00 to 7.00 in [11].

On to `CCC(CC)Cc1c2c(nc3cc4c(cc13)OCO4)-c1cc3c(c(=O)n1C2)COC(=O)[C@]3(O)CC` [Compound 6g], for which the pIC50 in assay [1] is 8.00 to 9.00; in [2], 8.00 to 9.00; in assay [3], 8.00 to 9.00; in assay [4], 8.00 to 9.00; in [5], 7.00 to 8.00; in assay [6], 9.00 to 10.00. Further, the pIC50 in assay [7], in assay [8], in [9], in assay [10] and in assay [11] was 8.00 to 9.00 throughout.

In the case of `CC[C@@]1(O)C(=O)OCc2c1cc1n(c2=O)Cc2c-1nc1cc3c(cc1c2CNc1ccccc1)OCO3` [Compound 5b], the pIC50 was 9.00 to 10.00 in [1]; 8.00 to 9.00 in assay [2]; 9.00 to 10.00 in [3]; 8.00 to 9.00 in assay [4]; 7.00 to 8.00 in assay [5]; 9.00 to 10.00 in [6]. The pIC50 in assay [7] is 8.00 to 9.00; in [8], 8.00 to 9.00; in assay [9] it was 8.00 to 9.00; in assay [10], 7.00 to 8.00; in assay [11], 8.00 to 9.00.

As to `CC[C@@]1(O)C(=O)OCc2c1cc1n(c2=O)Cc2c-1nc1cc3c(cc1c2C1CCCCCC1)OCO3` [Compound 6j], the pIC50 was 8.00 to 9.00 in [1]; 8.00 to 9.00 in [2]; 8.00 to 9.00 in [3]; 8.00 to 9.00 in assay [4]; 7.00 to 8.00 in [5]; 9.00 to 10.00 in assay [6]. Besides, the pIC50 in [7], in assay [8], in assay [9], in assay [10] and in assay [11] was 8.00 to 9.00 in each case.

Regarding `CC[C@@]1(O)C(=O)OCc2c1cc1n(c2=O)Cc2cc3cc4c(cc3nc2-1)OCO4` [Compound 6o], the pIC50 in assay [1] is 8.00 to 9.00; in assay [2], 8.00 to 9.00; in [3] it was 8.00 to 9.00; in [4], 8.00 to 9.00; in assay [5], 6.00 to 7.00; in [6] it was 9.00 to 10.00. Besides, the pIC50 is 8.00 to 9.00 in assay [7]; 8.00 to 9.00 in [8]; 8.00 to 9.00 in [9]; 7.00 to 8.00 in assay [10]; 7.00 to 8.00 in assay [11].

Regarding `CCCCCCc1c2c(nc3cc4c(cc13)OCO4)-c1cc3c(c(=O)n1C2)COC(=O)[C@]3(O)CC` [Compound 6k], the pIC50 was 8.00 to 9.00 in assay [1]; 8.00 to 9.00 in assay [2]; 8.00 to 9.00 in assay [3]; 8.00 to 9.00 in assay [4]; 6.00 to 7.00 in assay [5]; 9.00 to 10.00 in assay [6]. In addition, the pIC50 is 8.00 to 9.00 in assay [7]; 8.00 to 9.00 in assay [8]; 8.00 to 9.00 in assay [9]; 7.00 to 8.00 in [10]; 7.00 to 8.00 in [11].

For the compound `CC[C@@]1(O)C(=O)OCc2c1cc1n(c2=O)Cc2c-1nc1cc3c(cc1c2CNCc1ccc(OC)cc1)OCO3` [Compound 5l], the pIC50 in assay [1] is 7.00 to 8.00; in assay [2] it was 8.00 to 9.00; in [3], 8.00 to 9.00; in assay [4], 7.00 to 8.00; in assay [5], 7.00 to 8.00; in assay [6] it was 8.00 to 9.00. In addition, the pIC50 in assay [7] is 7.00 to 8.00; in assay [8] it was 7.00 to 8.00; in assay [9], 7.00 to 8.00; in [10] it was 8.00 to 9.00; in assay [11], 7.00 to 8.00.

For the compound `CC[C@@]1(O)C(=O)OCc2c1cc1n(c2=O)Cc2c-1nc1cc3c(cc1c2C(C)(C)C)OCO3` [Compound 6l], the pIC50 is 8.00 to 9.00 in [1]; 8.00 to 9.00 in assay [2]; 8.00 to 9.00 in assay [3]; 8.00 to 9.00 in [4]; 8.00 to 9.00 in assay [5]; 9.00 to 10.00 in assay [6]. Besides, the pIC50 in [7], in assay [8], in assay [9], in assay [10] and in assay [11] was 8.00 to 9.00 each time.

As for `CC[C@@]1(O)C(=O)OCc2c1cc1n(c2=O)Cc2c-1nc1cc3c(cc1c2CNCCC(c1ccccc1)c1ccccc1)OCO3` [Compound 5o], the pIC50 was 8.00 to 9.00 in assay [1]; 7.00 to 8.00 in assay [2]; 7.00 to 8.00 in assay [3]; 7.00 to 8.00 in [4]; 6.00 to 7.00 in assay [5]; 8.00 to 9.00 in [6]. Also, the pIC50 in assay [7], in [8], in assay [9], in assay [10] and in assay [11] was 7.00 to 8.00 each time.

On to `CC[C@@]1(O)C(=O)OCc2c1cc1n(c2=O)Cc2c-1nc1cc3c(cc1c2-c1ccccc1)OCO3` [Compound 6d], for which the pIC50 was 8.00 to 9.00 in assay [1]; 8.00 to 9.00 in [2]; 9.00 to 10.00 in assay [3]; 8.00 to 9.00 in assay [4]; 8.00 to 9.00 in [5]; 9.00 to 10.00 in assay [6]. Further, the pIC50 in [7], in assay [8], in assay [9], in assay [10] and in [11] was 8.00 to 9.00 throughout.

For the compound `CC[C@@]1(O)C(=O)OCc2c1cc1n(c2=O)Cc2c-1nc1cc3c(cc1c2CC(C)(C)C)OCO3` [Compound 6n], the pIC50 in assay [1] is 8.00 to 9.00; in assay [2] it was 8.00 to 9.00; in [3] it was 8.00 to 9.00; in assay [4], 8.00 to 9.00; in assay [5] it was 7.00 to 8.00; in assay [6] it was 8.00 to 9.00. Also, the pIC50 in assay [7], in [8], in [9], in assay [10] and in [11] was 8.00 to 9.00 throughout.

Consider `CC[C@@]1(O)C(=O)OCc2c1cc1n(c2=O)Cc2c-1nc1cc3c(cc1c2CN(C)C1CCCC[C@H]1NC)OCO3` (stereo partly drawn) [Compound 5aa], for which the pIC50 in assay [1] was 7.00 to 8.00; in assay [2], 7.00 to 8.00; in assay [3], 7.00 to 8.00; in assay [4] it was 7.00 to 8.00; in [5], 6.00 to 7.00; in [6], 8.00 to 9.00. Moreover, the pIC50 in assay [7] is 7.00 to 8.00; in assay [8] it was 6.00 to 7.00; in assay [9], 7.00 to 8.00; in assay [10], 7.00 to 8.00; in assay [11], 6.00 to 7.00.

Take `CC[C@@]1(O)C(=O)OCc2c1cc1n(c2=O)Cc2c-1nc1cc3c(cc1c2CO)OCO3` [Compound 8c]: the pIC50 in [1] was 9.00 to 10.00; in [2] it was 8.00 to 9.00; in assay [3] it was 9.00 to 10.00; in assay [4], 8.00 to 9.00; in [5], 7.00 to 8.00; in [6] it was 9.00 to 10.00. The pIC50 in [7], in assay [8], in [9], in assay [10] and in assay [11] was 8.00 to 9.00 in each case.
